The subject of one data set is PLC-PRF5 cells. The data set can be described thus: Apoptosis/necrosis assay (flow cytometry, GFP Certified Apoptosis/Necrosis detection kit). Format: cell-based, human. The note with it: 24 hours, SK1-I 10, 20, 40 μM, ozanimod 5, 10, 20 μM, ABC294640 10, 20, 40 μM. The protocol:
(§1) Apoptosis/necrosis assays evaluating the effect of different concentrations of each of ozanimod, ABC294640 and SK1-I on the four human hepatocellular carcinoma cell lines, Hep G2, Hep 3B, Huh 7 and PLC-PRF5 were also performed.
(§2) The protocol used for the apoptosis assays was: • Plated cells in 6-well plates and incubated at 37° C. overnight. • Prepared concentrations of test compound and control compound DMSO in media. • Ozanimod: 5 μM, 10 μM, and 20 μM. • ABC294640: 10 μM, 20 μM, and 40 μM. • SK1-I: 10 μM, 20 μM, and 40 μM. • Control: 0.2% DMSO. • Aspirated the medium from the 6-well plates and added test compound concentrations in media or 0.2% DMSO control in media. Incubated at 37° C. for 24 hours. • Collected and processed the cells following the flow cytometry protocol of the GFP Certified® Apoptosis/Necrosis detection kit from Enzo Life Sciences, Inc. (product no. ENZ-51002; Farmingdale, NY, USA).
(§3) FIGS. 5-16 present graphs plotting the data from these 24-hour apoptosis assays for the different concentrations of compounds and no-drug control for the various cell lines. Channel FL2 picks up the apoptosis signal and channel FL3 picks up the necrosis signal. Data points in Quadrant 3 (Q3) in the graphs corresponds to cells undergoing apoptosis (cells positive for the apoptosis detection reagent of the assay). Data points in Quadrant 2 (Q2) in the graphs corresponds to cells that are positive for the apoptosis detection reagent and positive for the necrosis detection reagent of the assay (indicative of late-stage apoptosis).
For orientation: Flow cytometry measures light scatter and fluorescence of single cells or particles in a stream.

The subject of a further data set is Huh7 cells. Described as above. It is filed as cell-based, human. The note with it: 24 hours, SK1-I 10, 20, 40 μM, ozanimod 5, 10, 20 μM, ABC294640 10, 20, 40 μM. The protocol:
as §1, §2, §3

Another data set deals with Hep G2 cells. Described as above. Format: cell-based, human. Particulars: 24 hours, SK1-I 10, 20, 40 μM, ozanimod 10, 20, 40 μM, ABC294640 10, 20, 40 μM. The protocol: as §1
(§4) The protocol used for the apoptosis assays was: • Plated cells in 6-well plates and incubated at 37° C. overnight. • Prepared […], 20 μM, and 40 μM. • SK1-I: 10 μM, 20 μM, and 40 μM. • Control: 0.2% DMSO. • Aspirated the medium from the 6-well plates and added test compound concentrations in media or 0.2% DMSO control in media. Incubated at 37° C. for 24 hours. • Collected and processed the cells following the flow cytometry protocol of the GFP Certified® Apoptosis/Necrosis detection kit from Enzo Life Sciences, Inc. (product no. ENZ-51002; Farmingdale, NY, USA).
as §3

In a further data set the test system is Hep 3B cells. The description is as above. Particulars: 24 hours, SK1-I 10, 20, 40 μM, ozanimod 10, 20, 40 μM, ABC294640 10, 20, 40 μM. It is filed as cell-based, human. The protocol: as §1, §4, §3
In data set [1] the test system is human hepatocellular carcinoma cell lines, Hep G2, Huh 7, and PLC-PRF5. Description: MTT cell viability assay (48 hours). The note with it: Hep G2, Huh 7, PLC-PRF5. Format: cell-based. The protocol:
The following MTT assay protocol was followed. • Prepared stock solutions: 50 mM ozanimod, 50 mM ABC294640, 10 mM SK1-I in DMSO. • Plated 20000 cells in 160 μl medium per well in 96-well plates for each cell line and incubated at 37° C. overnight. • Prepared compound serial dilutions: for ozanimod and ABC294640: dilute stock 50 mM 1:50 in medium to 1000 μM; for SK1-I, dilute stock 10 mM 1:50 in medium to […] them make serial 1:1.8 fold serial dilution to the titration. For negative control, diluted DMSO 1:50 to medium. • Added 40 μl negative control and serially titrated compounds to 160 μl of cells for each cell line. Performed in triplicate for each cell line. • Incubated at 37° C. for 72 hours. • Performed assay using Vybrant MTT Cell Proliferation Assay kit (V-13154) (Molecular Probes) from Thermo Fisher Scientific (Waltham, MA USA).
48-hour treatment MTT assays were also performed as follows.
On the technique in general: Tetrazolium assays rely on reduction of a dye to a coloured formazan, in cell work by metabolically active cells.

Data set [2] has as its system primary human hepatocytes. The data set can be described thus: Apoptosis assay on normal (non-cancerous) primary human hepatocytes. It is filed as cell-based. The note with it: 24 hours; SK1-I 10, 20, 40 μM; ozanimod 2.5, 5, 10 μM; any concentration tested. The protocol: In still further experiments, the effects of SK1-I and ozanimod on normal (non-cancerous) primary human hepatocytes were investigated. Fresh human hepatocytes in a 12-well plate (HUF12) were obtained from Triangle Research Labs (Durham, NC, USA; part of Lonza Group) and handled according to the supplier's protocol. The shipping medium was aspirated from each well and replaced with 1 ml per well of warm Hepatocyte Maintenance Medium. The plate was then placed in a 5% CO2 incubator at 37° C. and the hepatocytes were allowed to acclimate overnight. The Hepatocyte Maintenance Medium was replaced before treatment with drug or no-drug control, and the hepatocytes were treated with 0 μM (no-drug control), 10 μM, 20 μM, or 40 μM SK1-I or 0 μM, 2.5 μM, 5 μM, or 10 μM ozanimod for 24 hours under incubation. The cells were then harvested and analyzed using the GFP Certified® Apoptosis/Necrosis detection kit. The results are shown in FIGS. 19A-D for SK1-I and FIGS. 20A-D for ozanimod as follows.

The subject of data set [3] is Jurkat cells (human T-cell leukemia cell line). Description: Apoptosis assay. The note with it: SK1-I 10, 20 μM, ozanimod 5, 10 μM. Format: cell-based. The protocol:
as §2, §3

For the next data set, the system named is Jurkat cells. The data set can be described thus: Cell viability effects (FIG. 21). It is filed as cell-based, human. Particulars: Jurkat cells without IL-2; 5 μM of each agent.

On to `O=C(NCc1ccncc1)C12CC3C[C@H](C1)CC(c1ccc(Cl)cc1)(C3)C2` [ABC294640, (7 S)-3-(4-chlorophenyl)-N-(pyridin-4-ylmethyl)adamantane-1-carboxamide], for which the induction of apoptosis result in the data set with PLC-PRF5 cells is listed as “did not substantially induce apoptosis”; in the data set on Huh7 cells, “failed to induce apoptosis”; in the data set on Hep G2 cells, “failed to induce apoptosis”; in the data set with Hep 3B cells, “did not substantially induce apoptosis”.

For the molecule `CCCCCc1ccc(/C=C/[C@H](O)[C@@H](CO)NC)cc1` [SK1-I, (E,2R,3S)-2-(methylamino)-5-(4-pentylphenyl)pent-4-ene-1,3-diol], the induction of apoptosis entry (in the data set on PLC-PRF5 cells; with Huh7 cells; in data set [3]; in the data set on Hep G2 cells; with Hep 3B cells) was “strongly induced apoptosis” throughout. In data set [1], the “killing hepatocellular carcinoma cells, compared with PF-543” value is on record as “more effective at killing hepatocellular carcinoma cells than PF-543”. Further, in data set [2], the “induction of apoptosis of primary human hepatocytes” value was “did not induce apoptosis”.

With `CC(C)Oc1ccc(-c2nc(-c3cccc4c3CC[C@@H]4NCCO)no2)cc1C#N` [ozanimod, 5-[3-[(1S)-1-(2-hydroxyethylamino)-2,3-dihydro-1H-inden-4-yl]-1,2,4-oxadiazol-5-yl]-2-propan-2-yloxybenzonitrile], the induction of apoptosis result (in the data set on PLC-PRF5 cells; in the data set with Huh7 cells; in data set [3]; in the data set on Hep G2 cells; in the data set on Hep 3B cells) was “strongly induced apoptosis” in each case. The “induction of apoptosis of primary human hepatocytes” value in data set [2] was “did not induce apoptosis”. Besides, in the data set on Jurkat cells, the cell viability entry is recorded as “strongly decreases viability”.
